As a reminder, the EC50 is the concentration that produces a half-maximal response. The melting point is the temperature of the solid-liquid transition. The Emax is the size of the effect at its maximum, as opposed to the concentration needed.

These results are taken from US20220315567A1 (priority 2016, published 2022).

Where two headings read alike, the source gives them in different places.

Series [1] concerns the target T1, human OPRM1 (μ, MOR) (Homo sapiens, UniProt P35372).
T1 construct: host or cells: CHO-K1
Briefly: cell-based. The note with it: for EC50: PathHunter human OPRM1 Arrestin CHO-K1 cell line, read-out: cAMP EC50; for Emax: OPRM1, read-out: cAMP Emax. The procedure: G-protein signaling was measured via second messenger cAMP modulation. Detection of cAMP modulation was accomplished in the PathHunter human OPRM1 (μ, MOR) Arrestin CHO-K1 cell line using the Dynamic2 cAMP Kit from Cisbio.

Series [2] deals with T1, human OPRM1 (μ, MOR). Briefly: cell-based. Conditions: for EC50: PathHunter human OPRM1 Arrestin CHO-K1 cell line, read-out: β-Arrestin EC50; for Emax: OPRM1, read-out: β-Arrestin Emax. The method in brief: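 β-Arrestin-2 recruitment was measured in PathHunter CHO-K1 cells expressing ED-tagged human OPRM1 and EA-fused arrestin. Agonist-driven recruitment restores β-galactosidase activity by enzyme fragment complementation, read by chemiluminescence.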

Series [3] concerns the target T1, human OPRM1 (μ, MOR). It is filed as cell-based. The note with it: for ΔRA of compound: relative activity from EC50 and Emax of β-arrestin vs cAMP, lower RA = more G-protein biased. The method, boiled down:
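Activity measured in cell assays for G-protein signaling and for β-arrestin recruitment. A relative activity (RA) value was derived by comparing the two readouts, taking both EC50 and Emax into account.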

For series [4] the following is noted: patients following bunionectomy; cited from earlier work.
For series [5] the following is noted: healthy volunteers; cited from earlier work.

T1 sequence (P35372 whole entry): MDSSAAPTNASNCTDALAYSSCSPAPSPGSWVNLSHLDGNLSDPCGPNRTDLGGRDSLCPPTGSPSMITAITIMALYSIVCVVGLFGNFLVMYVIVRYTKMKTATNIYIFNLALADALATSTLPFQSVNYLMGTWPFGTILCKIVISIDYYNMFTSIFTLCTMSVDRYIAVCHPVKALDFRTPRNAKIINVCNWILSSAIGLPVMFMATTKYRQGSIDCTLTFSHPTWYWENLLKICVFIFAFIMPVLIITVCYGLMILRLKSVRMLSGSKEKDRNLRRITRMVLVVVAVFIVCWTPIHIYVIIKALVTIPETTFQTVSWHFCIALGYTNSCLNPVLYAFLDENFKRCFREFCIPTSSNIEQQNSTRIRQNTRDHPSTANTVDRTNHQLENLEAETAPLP

Turning to `CN(C)C(CNC(=O)N[C@H]1CCc2ccccc2C1)c1ccsc1` (stereo partly shown) [Compound 67], the melting point was in the range of 165 to 167 °C. In series [1], the “cAMP Emax” value came out at 50.9% and the EC50 was determined as 0.013 µM. Further, in series [2], the “β-Arrestin Emax” value is recorded as 2.6% and the EC50 is above 100 µM. Besides, in series [3], the “Bias Factor (ΔRA of compound relative to ΔRA of DAMGO) × 10” value was below −14.83 and the ΔRA of compound was below −2.96.
`COc1ccc(C(CNC(=O)N2CCCc3cc(F)ccc32)N(C)C)cc1` (stereo not shown) [Compound 68a]: the melting point is 145 to 146 °C. Further, in series [1], the Emax was 94.6% and the concentration giving a half-maximal response (EC50) came to 0.167 µM. In addition, in series [2], the Emax turned out to be 39.9% and the EC50 is 14.6 µM. Moreover, in series [3], the “Bias Factor (ΔRA of compound relative to ΔRA of DAMGO) × 10” value is on record as −8.36 and the ΔRA of compound is −2.32.
Compound `CN(C)[C@H](CCNC(=O)N[C@@H]1CCc2ccccc2C1)c1ccsc1` [Compound 71] had a melting point of 112 to 114 °C. Besides, in series [1], the “cAMP Emax” value is 71.2% and the 50% effective concentration (EC50) stood at 0.177 µM. In addition, in series [2], the “β-Arrestin Emax” value was 10.5% and the concentration for a half-maximal effect (EC50) came out at 1.82 µM. Further, in series [3], the “Bias Factor (ΔRA of compound relative to ΔRA of DAMGO) × 10” value is −3.66 and the ΔRA of compound is −1.85.
Compound `CN(C)[C@H](CCNC(=O)N[C@@H]1CCc2ccccc2C1)c1ccsc1` [Compound 72] registered a melting point of 147 to 149 °C. In series [1], the “cAMP Emax” value came out at 111.9% and the EC50 is 0.197 µM. For the same compound, in series [2], the “β-Arrestin Emax” value amounted to 39.1% and the concentration for a half-maximal effect (EC50) was determined as 2.61 µM. In series [3], the “Bias Factor (ΔRA of compound relative to ΔRA of DAMGO) × 10” value is −0.99 and the ΔRA of compound is listed as −1.58.
Compound `CN(C)[C@@H](CCNC(=O)N[C@@H]1CCc2ccccc2C1)c1ccsc1` [Compound 73] yielded a melting point of 147 to 148 °C. Further, in series [1], the Emax came out at 13.6% and the EC50 came out at 0.422 µM. Also, in series [2], the Emax was below 1% and the EC50 is above 100 µM. Moreover, in series [3], the “Bias Factor (ΔRA of compound relative to ΔRA of DAMGO) × 10” value is reported as below −14.83 and the ΔRA of compound is on record as below −2.96.
As to `COc1ccsc1CNCC[C@@]1(c2ccccn2)CCOC2(CCCC2)C1` [oliceridine, N-[(3-methoxythiophen-2-yl)methyl]-2-[(9R)-9-pyridin-2-yl-6-oxaspiro[4.5]decan-9-yl]ethanamine], the level of analgesia entry in series [4] was “higher level of analgesia”. Further, the “on-target adverse effects (nausea, decrease in respiratory drive)” value in series [5] is “decreased on-target adverse effects”.
